# Legend:
# [1] = test system: AMBEL (Ragweed, Common); experiment: Postemergence herbicidal evaluation; assay type: in vivo, Ambrosia artemisifolia; settings: postemergence
# Outline: (§1)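 Each compound, dispersed in an acetone/water mix (50/50) carrying 0.5% TWEEN 20, is nozzle-sprayed at 40 psi on approximately two-week-old seedlings at about 0.0156–0.500 kg/ha. Plants are assessed 4–5 weeks afterward on a 0–9 scale relative to control; duplicate tests are averaged.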
# [2] = test system: IPOHE (Morningglory, Ivyleaf); experiment: Postemergence herbicidal evaluation; assay type: in vivo, Ipomoea hederacea; settings: postemergence
# Outline: as §1
# [3] = test system: GLXMAW (Soybean, Williams); experiment: Postemergence herbicidal evaluation; assay type: in vivo, Glycine max, (L.) Merr. cv Williams; settings: postemergence
# Outline: as §1
# [4] = test system: ZEAMX (Corn, Field); experiment: Postemergence herbicidal evaluation; assay type: in vivo, Zea mays; settings: postemergence
# Outline: as §1
# [5] = test system: ABUTH (Velvetleaf); experiment: Preemergence herbicidal evaluation; assay type: in vivo, Abutilon theophrasti; settings: rated 4-5 weeks after treatment; for ABUTH rating: preemergence, 0-9 scale
# Outline: (§2)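 Herbicidal effect scored visually, 0-9, at 4 to 5 weeks against a control; compound applied preemergence by aqueous acetone spray to seeded soil at about 0.0156 to 0.500 kg/ha.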
# [6] = test system: AMBEL (Ragweed, Common); experiment: Preemergence herbicidal evaluation; assay type: in vivo, Ambrosia artemisifolia; settings: rated 4-5 weeks after treatment; for AMBEL rating: preemergence, 0-9 scale
# Outline: as §2
# [7] = test system: CASOB (Sicklepod); experiment: Preemergence herbicidal evaluation; assay type: in vivo, Cassia obtusifolia; settings: rated 4-5 weeks after treatment; for CASOB rating: preemergence, 0-9 scale
# Outline: as §2
# [8] = test system: GALAP (Galium); experiment: Preemergence herbicidal evaluation; assay type: in vivo, Galium aparine; settings: rated 4-5 weeks after treatment; for GALAP rating: preemergence, 0-9 scale
# Outline: as §2
# [9] = test system: ECHCG (Barnyardgrass); experiment: Preemergence herbicidal evaluation; assay type: in vivo, Echinochloa crus-galli; settings: rated 4-5 weeks after treatment; for ECHCG rating: preemergence, 0-9 scale
# Outline: as §2
# [10] = test system: SETVI (Foxtail, Green); experiment: Preemergence herbicidal evaluation; assay type: in vivo, Setaria viridis; settings: rated 4-5 weeks after treatment; for SETVI rating: preemergence, 0-9 scale
# Outline: as §2
# [11] = test system: GLXMAW (Soybean, Williams); experiment: Preemergence herbicidal evaluation; assay type: in vivo, Glycine max, (L.) Merr. cv Williams; settings: rated 4-5 weeks after treatment; for GLXMAW rating: preemergence, 0-9 scale
# Outline: as §2
# [12] = test system: CYPSE (Flatsedge); experiment: Preemergence weed control under flooded paddy conditions; assay type: in vivo, Cyperus serotinus; settings: rated 3-4 weeks after treatment
# Outline: (§3)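 Using flooded silt loam (water 1.5 to 3 cm deep), seeds sown in the top 0.5 cm were exposed preemergence to compound pipetted into the flood at about 0.0313 to 0.500 kg/ha. Effects were scored 0-9 by eye three to four weeks later.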
# [13] = test system: SAGPY (Arrowhead (Pygmaea)); experiment: as above; assay type: in vivo, Sagittaria pygmaea; settings: rated 3-4 weeks after treatment
# Outline: as §3
# [14] = test system: ECHORC (Watergrass (Calif.)); experiment: Postemergence weed control under flooded paddy conditions; assay type: in vivo, Echinochloa oryzoides; settings: postemergence weeds
# Outline: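 Herbicidal effect is judged by eye on a 0–9 scale versus control, 3–4 weeks after dosing. Dosing is into flood water kept 1.5–3 cm over the soil, at about 0.0313–0.500 kg/ha in aqueous/acetone 50/50 v/v, on 3–5 cm weeds and 1.5–2.5-leaf rice seedlings.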
compound,measurement,setting,value
"C=CCN1C(=O)C(CC(=O)NS(=O)(=O)CC)SC1=Nc1cc(-n2c(=O)cc(C(F)(F)F)n(C)c2=O)c(F)cc1Cl (stereo not shown) [Compound 104, 3-Allyl-2-{{2-chloro-5-[3,6-dihydro-3-methyl-2,6-dioxo-4-(trifluoromethyl)-1(2H)-pyrimidinyl]-4-fluorophenyl}imino}-N-(ethylsulfonyl)-4-oxo-5-thiazolidineacetamide]",Herbicidal rating AMBEL,[1]; rate 0.0156 kg/ha,3.0
same,Herbicidal rating AMBEL,[1]; rate 0.0313 kg/ha,9.0
same,Herbicidal rating AMBEL,[1]; rate 0.0625 kg/ha,9.0
same,Herbicidal rating AMBEL,[1]; rate 0.1250 kg/ha,9.0
same,Herbicidal rating IPOHE,[2]; rate 0.0156 kg/ha,9.0
same,Herbicidal rating IPOHE,[2]; rate 0.0313 kg/ha,9.0
same,Herbicidal rating IPOHE,[2]; rate 0.0625 kg/ha,9.0
same,Herbicidal rating IPOHE,[2]; rate 0.1250 kg/ha,9.0
same,Herbicidal rating GLXMAW,[3]; rate 0.0156 kg/ha,4.5
same,Herbicidal rating GLXMAW,[3]; rate 0.0313 kg/ha,5.5
same,Herbicidal rating GLXMAW,[3]; rate 0.0625 kg/ha,7.0
same,Herbicidal rating GLXMAW,[3]; rate 0.1250 kg/ha,8.5
same,Herbicidal rating ZEAMX,[4]; rate 0.0156 kg/ha,4.5
same,Herbicidal rating ZEAMX,[4]; rate 0.0313 kg/ha,4.5
same,Herbicidal rating ZEAMX,[4]; rate 0.0625 kg/ha,6.0
same,Herbicidal rating ZEAMX,[4]; rate 0.1250 kg/ha,8.0
same,ABUTH rating,[5]; 0.0625 kg/ha,3.0
same,ABUTH rating,[5]; 0.1250 kg/ha,8.0
same,ABUTH rating,[5]; 0.2500 kg/ha,9.0
same,ABUTH rating,[5]; 0.5000 kg/ha,9.0
same,AMBEL rating,[6]; 0.0625 kg/ha,0.0
same,AMBEL rating,[6]; 0.1250 kg/ha,0.0
same,AMBEL rating,[6]; 0.2500 kg/ha,3.0
same,AMBEL rating,[6]; 0.5000 kg/ha,9.0
same,CASOB rating,[7]; 0.0625 kg/ha,0.0
same,CASOB rating,[7]; 0.1250 kg/ha,0.0
same,CASOB rating,[7]; 0.2500 kg/ha,0.0
same,CASOB rating,[7]; 0.5000 kg/ha,0.0
same,GALAP rating,[8]; 0.0625 kg/ha,0.0
same,GALAP rating,[8]; 0.1250 kg/ha,0.0
same,GALAP rating,[8]; 0.2500 kg/ha,0.0
same,GALAP rating,[8]; 0.5000 kg/ha,6.0
same,ECHCG rating,[9]; 0.0625 kg/ha,0.0
same,ECHCG rating,[9]; 0.1250 kg/ha,0.0
same,ECHCG rating,[9]; 0.2500 kg/ha,1.0
same,ECHCG rating,[9]; 0.5000 kg/ha,1.0
same,SETVI rating,[10]; 0.0625 kg/ha,0.0
same,SETVI rating,[10]; 0.1250 kg/ha,0.0
same,SETVI rating,[10]; 0.2500 kg/ha,0.0
same,SETVI rating,[10]; 0.5000 kg/ha,6.0
same,GLXMAW rating,[11]; 0.0625 kg/ha,0.0
same,GLXMAW rating,[11]; 0.1250 kg/ha,0.0
same,GLXMAW rating,[11]; 0.2500 kg/ha,0.0
same,GLXMAW rating,[11]; 0.5000 kg/ha,3.0
same,CYPSE herbicidal effect rating,[12]; 0.0313 kg/ha,0.0
same,CYPSE herbicidal effect rating,[12]; 0.1250 kg/ha,0.0
same,CYPSE herbicidal effect rating,[12]; 0.2500 kg/ha,0.0
same,SAGPY herbicidal effect rating,[13]; 0.0313 kg/ha,6.0
same,SAGPY herbicidal effect rating,[13]; 0.0625 kg/ha,9.0
same,SAGPY herbicidal effect rating,[13]; 0.1250 kg/ha,9.0
same,SAGPY herbicidal effect rating,[13]; 0.2500 kg/ha,9.0
same,Herbicidal rating ECHORC,"[14]; Rate 0.0313 kg/ha, rated 3 to 4 weeks after treatment",4.0
same,Herbicidal rating ECHORC,"[14]; Rate 0.0625 kg/ha, rated 3 to 4 weeks after treatment",5.0
same,Herbicidal rating ECHORC,"[14]; Rate 0.1250 kg/ha, rated 3 to 4 weeks after treatment",6.0
same,Herbicidal rating ECHORC,"[14]; Rate 0.2500 kg/ha, rated 3 to 4 weeks after treatment",6.0
"CCOC(=O)CN1C(=O)C2(CC2)SC1=Nc1cc(-n2c(=O)cc(C(F)(F)F)n(C)c2=O)c(F)cc1Cl [Compound 15, Ethyl 5-{{2-chloro-5-[3,6-dihydro-3-methyl-2,6-dioxo-4-(trifluoromethyl)-1(2H)-pyrimidinyl]-4-fluorophenyl}imino}-7-oxo-4-thia-6-azaspiro[2.4]-heptane-6-acetate]",AMBEL herbicidal rating,[1]; rate 0.0156 kg/ha,0.0
same,AMBEL herbicidal rating,[1]; rate 0.0313 kg/ha,0.0
same,AMBEL herbicidal rating,[1]; rate 0.0625 kg/ha,4.0
same,AMBEL herbicidal rating,[1]; rate 0.1250 kg/ha,9.0
same,IPOHE herbicidal rating,[2]; rate 0.0156 kg/ha,6.0
same,IPOHE herbicidal rating,[2]; rate 0.0313 kg/ha,9.0
same,IPOHE herbicidal rating,[2]; rate 0.0625 kg/ha,9.0
same,IPOHE herbicidal rating,[2]; rate 0.1250 kg/ha,9.0
same,GLXMAW herbicidal rating,[3]; rate 0.0156 kg/ha,3.5
same,GLXMAW herbicidal rating,[3]; rate 0.0313 kg/ha,4.0
same,GLXMAW herbicidal rating,[3]; rate 0.0625 kg/ha,4.5
same,GLXMAW herbicidal rating,[3]; rate 0.1250 kg/ha,5.5
same,ZEAMX herbicidal rating,[4]; rate 0.0156 kg/ha,5.0
same,ZEAMX herbicidal rating,[4]; rate 0.0313 kg/ha,6.0
same,ZEAMX herbicidal rating,[4]; rate 0.0625 kg/ha,7.0
same,ZEAMX herbicidal rating,[4]; rate 0.1250 kg/ha,7.5
same,ABUTH preemergence herbicidal rating,[5]; rate 0.0156 kg/ha,1.5
same,ABUTH preemergence herbicidal rating,[5]; rate 0.0313 kg/ha,3.0
same,ABUTH preemergence herbicidal rating,[5]; rate 0.0625 kg/ha,9.0
same,ABUTH preemergence herbicidal rating,[5]; rate 0.1250 kg/ha,9.0
same,ABUTH preemergence herbicidal rating,[5]; rate 0.2500 kg/ha,9.0
same,AMBEL preemergence herbicidal rating,[6]; rate 0.0156 kg/ha,0.5
same,AMBEL preemergence herbicidal rating,[6]; rate 0.0313 kg/ha,1.0
same,AMBEL preemergence herbicidal rating,[6]; rate 0.0625 kg/ha,1.5
same,AMBEL preemergence herbicidal rating,[6]; rate 0.1250 kg/ha,3.0
same,AMBEL preemergence herbicidal rating,[6]; rate 0.2500 kg/ha,9.0
same,CASOB preemergence herbicidal rating,[7]; rate 0.0156 kg/ha,0.0
same,CASOB preemergence herbicidal rating,[7]; rate 0.0313 kg/ha,0.5
same,CASOB preemergence herbicidal rating,[7]; rate 0.0625 kg/ha,0.5
same,CASOB preemergence herbicidal rating,[7]; rate 0.1250 kg/ha,2.0
same,CASOB preemergence herbicidal rating,[7]; rate 0.2500 kg/ha,6.5
same,GALAP preemergence herbicidal rating,[8]; rate 0.0156 kg/ha,0.0
same,GALAP preemergence herbicidal rating,[8]; rate 0.0313 kg/ha,0.0
same,GALAP preemergence herbicidal rating,[8]; rate 0.0625 kg/ha,9.0
same,GALAP preemergence herbicidal rating,[8]; rate 0.1250 kg/ha,9.0
same,GALAP preemergence herbicidal rating,[8]; rate 0.2500 kg/ha,9.0
same,ECHCG preemergence herbicidal rating,[9]; rate 0.0156 kg/ha,0.0
same,ECHCG preemergence herbicidal rating,[9]; rate 0.0313 kg/ha,0.5
same,ECHCG preemergence herbicidal rating,[9]; rate 0.0625 kg/ha,1.0
same,ECHCG preemergence herbicidal rating,[9]; rate 0.1250 kg/ha,2.0
same,ECHCG preemergence herbicidal rating,[9]; rate 0.2500 kg/ha,4.5
same,SETVI preemergence herbicidal rating,[10]; rate 0.0156 kg/ha,0.5
same,SETVI preemergence herbicidal rating,[10]; rate 0.0313 kg/ha,0.5
same,SETVI preemergence herbicidal rating,[10]; rate 0.0625 kg/ha,0.5
same,SETVI preemergence herbicidal rating,[10]; rate 0.1250 kg/ha,4.0
same,SETVI preemergence herbicidal rating,[10]; rate 0.2500 kg/ha,9.0
same,GLXMAW preemergence herbicidal rating,[11]; rate 0.0156 kg/ha,0.5
same,GLXMAW preemergence herbicidal rating,[11]; rate 0.0313 kg/ha,0.5
same,GLXMAW preemergence herbicidal rating,[11]; rate 0.0625 kg/ha,1.0
same,GLXMAW preemergence herbicidal rating,[11]; rate 0.1250 kg/ha,2.5
same,GLXMAW preemergence herbicidal rating,[11]; rate 0.2500 kg/ha,5.5
same,Herbicidal rating CYPSE,[12]; 0.0313 kg/ha,0.0
same,Herbicidal rating CYPSE,[12]; 0.0625 kg/ha,0.0
same,Herbicidal rating CYPSE,[12]; 0.1250 kg/ha,0.0
same,Herbicidal rating CYPSE,[12]; 0.2500 kg/ha,0.0
same,Herbicidal rating SAGPY,[13]; 0.0313 kg/ha,0.0
same,Herbicidal rating SAGPY,[13]; 0.0625 kg/ha,0.0
same,Herbicidal rating SAGPY,[13]; 0.1250 kg/ha,0.0
same,Herbicidal rating SAGPY,[13]; 0.2500 kg/ha,0.0
same,Herbicidal rating ECHORC,"[14]; rate 0.0313 kg/ha, 3-4 weeks after treatment",6.0
same,Herbicidal rating ECHORC,"[14]; rate 0.0625 kg/ha, 3-4 weeks after treatment",9.0
same,Herbicidal rating ECHORC,"[14]; rate 0.1250 kg/ha, 3-4 weeks after treatment",9.0
same,Herbicidal rating ECHORC,"[14]; rate 0.2500 kg/ha, 3-4 weeks after treatment",9.0
